The series can be described thus: Particle form by X-ray powder diffraction (XRPD). In kind it is physicochemical. The conditions noted are these: starting material before the process; product after freeze drying. Here is the method:
The physical form of the paclitaxel particles was measured using X-ray powder diffraction method (“XRPD”) before the process (i.e. the starting material) and again after the product of the process had been freeze dried.

The record followed here is patent US20100184946A1, “Preparation of Fine Particles” (priority 2007, published 2010).

As for `CC(=O)O[C@H]1C(=O)[C@@]2(C)[C@H]([C@H](OC(=O)c3ccccc3)[C@]3(O)C[C@H](OC(=O)[C@H](O)[C@@H](NC(=O)c4ccccc4)c4ccccc4)C(C)=C1C3(C)C)[C@]1(OC(C)=O)CO[C@@H]1C[C@@H]2O` [paclitaxel], the “physical form (XRPD)” value is “crystal structure ordering”.
